Measured values from patent US20250275958A1, “GPCR REGULATOR AND USE THEREOF” (BEIJING CHANGPING LABORATORY, priority 2022, published 2025).
Like-named read-outs stand apart in the source and are kept apart here.

Legend:
GPR132 = molecular target: T1, GPR132 (Homo sapiens, UniProt Q9UNW8); assay: G protein activation (Gi BRET probes, GPR132 co-transfected in HEK293 cells); assay type: cell-based; conditions: stimulated 2 minutes, read-out: GPR132 EC50 (GPR132 agonist activity)
T1 construct: expressed in transfected cells; host or cells: HEK293 cells (transient co-transfection)
T1 sequence (Q9UNW8 1-380): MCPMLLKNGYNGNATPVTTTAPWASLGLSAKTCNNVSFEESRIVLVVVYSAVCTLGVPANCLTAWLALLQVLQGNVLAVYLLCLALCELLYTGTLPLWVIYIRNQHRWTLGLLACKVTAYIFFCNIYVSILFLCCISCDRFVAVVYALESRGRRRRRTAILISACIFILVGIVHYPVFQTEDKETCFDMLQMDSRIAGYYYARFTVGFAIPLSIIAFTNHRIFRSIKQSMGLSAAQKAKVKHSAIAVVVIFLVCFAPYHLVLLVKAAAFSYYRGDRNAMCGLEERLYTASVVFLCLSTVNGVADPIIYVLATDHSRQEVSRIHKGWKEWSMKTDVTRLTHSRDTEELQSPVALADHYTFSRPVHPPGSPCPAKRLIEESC
Experimental: Gi BRET probes were generated according to previous literature (Olsen et al., 2020), and included Gαi-RLuc8, Gβ3, and Gγ9-GFP2. GPR132 and Gi BRET probes were transiently co-transfected in HEK293 cells. 24 hours after transfection, the cells were distributed into 96-well microplates at a density of 5×10^4 cells per well and cultured for another 24 hours. The cells were washed twice with Tyrode buffer and stimulated with compound ligands at different concentrations (10^−12 to 10^−5 M) for 2 minutes. After adding coelenterazine, the substrate of luciferase, 400a (5 μM), BRET signal was measured using a Mithras LB940 microplate reader equipped with a BRET filter set. The BRET signal was calculated as the emission light ratio at 510 nm/400 nm.
The compounds with lower EC50 values in the above experiments had good GPR132 agonist activity.

TNF-α = assay: Determination of level of tumor necrosis factor (TNF-α) as cell inflammatory marker, ELISA, LPS-treated HepG2 cells; assay type: cell-based; conditions: Homo sapiens, 48 h of drug administration, read-out: EC50 (activity in reducing TNF-α)
Experimental: HepG2 cells were inoculated in 96-well plates at a density of 30%. After incubation for 18 h to allow the cells to adhere to wall, the original culture medium was removed, and each well of the drug group was added with LPS culture medium (LPS concentration was […]), the control group was added with an equal amount of DMSO, and incubation was performed overnight. […] Three replicate wells were set for each compound. After 48 h of drug administration, the cell supernatant was collected with a sterile tube, and centrifuged for about 20 minutes (2000 to 3000 rpm). The supernatant was carefully collected. The TNF-α level was then determined using ELISA method. The specific steps were as follows: • Standard sample addition: Standard sample wells and sample wells were set, and 50 μL of standard sample at different concentrations was added to each standard sample well. • Sample addition: Blank wells (blank control wells was not added with sample and ELISA reagent, and the rest operations were the same) and test sample wells were set. First, 40 μL of sample diluent was added to each test sample well on an ELISA plate, and then 10 μL of the sample to be tested (the final dilution ratio of sample was 5) was added. The sample was added to the bottom of the well of the ELISA plate, not touching the well wall as much as possible, and then the gentle shaking was carried out for mixing. • Enzyme addition: 100 μL of ELISA reagent was added to each well, except for the blank wells. • Incubation: The plate was sealed with a sealing film and incubated at 37° C. for 60 minutes. • Solution preparation: 20-Fold concentrated washing solution was diluted by 20-fold with distilled water for later use. • Washing: The sealing film was carefully peeled off, the liquid was discarded, the plate was spin-dried; each well was filled with the washing solution, allowed to stand for 30 seconds and then the washing solution was discarded. This operation was repeated 5 times, and pat-drying was performed. • Color development: First, 50 μL of color developer A was added to each well, then 50 μL of color developer B was added, gently shaken and mixed, and color development was performed at 37° C. in the dark for 15 minutes. • Termination: 50 μL of termination liquid was added to each well to stop the reaction (the blue color immediately turned yellow). • Determination: Zero was set with the blank well, and the absorbance (OD value) at 450 nm of each well was measured in sequence. The determination should be performed within 15 minutes after adding the termination liquid.
TNF-α content in the sample to be tested could be calculated by drawing a standard curve based on the standard samples. TNF-α reduction rate was further calculated. The formula for calculating TNF-α reduction was Reduction rate (%)=TNF-α contentcontrol−TNF-α contentto be tested/TNF-α contentcontrol×100.
In the above experiment, the compounds with higher TNF-α reduction rate and lower EC50 value could better reduce the level of inflammation.

| SMILES | EC50 (GPR132) [nM] | EC50 (TNF-α) [µM] | EC50 (GPR132; class symbols) [nM] | EC50 (TNF-α; class symbols) [µM] |
| --- | --- | --- | --- | --- |
| Cc1c(C(=O)O)oc2ccc(S(=O)(=O)N(CCc3ccccc3)Cc3ccccc3)cc12 [Example 23, 3-METHYL-5-(N-BENZYL-N-PHENYLETHYLSULFAMOYL)BENZOFURAN-2-CARBOXYLIC ACID] | 3800 | 5.9 |  |  |
| Cc1c(C(=O)O)oc2ccc(NC(=O)[C@H]3C[C@H]3c3ccccc3)cc12 [Example 19, 3-METHYL-5-((1S,2R)-2-PHENYLCYCLOPROPANE-1-CARBOXAMIDO) BENZOFURAN-2-CARBOXYLIC ACID] |  |  | 1000 to 10000 | 10 to 50 |
| Cc1c(C(=O)O)oc2ccc(S(=O)(=O)N(CCc3ccccc3)c3ccc(Oc4ccccc4)cc3)cc12 [Example 30, 3-METHYL-5-(N-(4-PHENOXYPHENYL)-N-PHENYLETHYLSULFAMOYL)BENZOFURAN-2-CARBOXYLIC ACID] |  |  | 10 to 1000 | 10 to 50 |
| Cc1c(C(=O)O)oc2ccc(NC(=O)/C=C/c3ccccc3)cc12 [Example 17] |  |  | 10 to 1000 | 0.01 to 10 |
| Cc1c(C(=O)O)oc2ccc(NC(=O)CCC(=O)c3ccccc3)cc12 [Example 20] |  |  | 10 to 1000 | 0.01 to 10 |
| Cc1c(C(=O)O)oc2ccc(S(=O)(=O)N(CCc3ccccc3)c3ccc(N4CCN(S(C)(=O)=O)CC4)cc3)cc12 [Example 29, 3-METHYL-5-(N-(4-(4-(METHYLSULFONYL)PIPERAZIN-1-YL)PHENYL)-N-PHENYLETHYLSULFAMOYL)BENZOFURAN-2-CARBOXYLIC ACID] |  |  | 1000 to 10000 | 10 to 50 |
| Cc1c(C(=O)O)oc2ccc(S(=O)(=O)N(CCc3ccccc3)Cc3ccc(C(=O)OC(C)(C)C)cc3)cc12 [Example 25, 3-METHYL-5-(N-(4-(TERT-BUTYLOXYCARBONYL)BENZYL)-N-PHENYLETHYLSULFAMOYL) BENZOFURAN-2-CARBOXYLIC ACID] |  |  | 10 to 1000 | 0.01 to 10 |
| Cc1c(C(=O)O)oc2ccc(OCCCc3ccccc3)cc12 [Example 22, 3-METHYL-5-(3-PHENYLPROPOXY)BENZOFURAN-2-CARBOXYLIC ACID] |  |  | 10 to 1000 | 0.01 to 10 |
| Cc1c(C(=O)O)oc2ccc(S(=O)(=O)N(CCc3ccccc3)Cc3ccc(Br)cc3)cc12 [Example 24, 3-METHYL-5-(N-(4-BROMOBENZYL)-N-PHENYLETHYLSULFAMOYL)BENZOFURAN-2-CARBOXYLIC ACID] | 300 | 0.7 |  |  |
| Cc1c(C(=O)O)oc2ccc(NC(=O)CCc3ccccc3)cc12 [Example 16] | 6500 | 10.2 |  |  |
| Cc1c(C(=O)O)oc2ccc(NC(=O)CCCCc3ccccc3)cc12 [Example 21, 3-METHYL-5-(5-PHENYLVALERAMIDO)BENZOFURAN-2-CARBOXYLIC ACID] |  |  | 1000 to 10000 | 0.01 to 10 |
| Cc1c(C(=O)O)oc2ccc(S(=O)(=O)N(CCc3ccccc3)c3ccccc3)cc12 [Example 27, 3-METHYL-5-(N-PHENETHYL-N-PHENYLSULFAMOYL)BENZOFURAN-2-CARBOXYLIC ACID] |  |  | 1000 to 10000 | 10 to 50 |
| Cc1c(C(=O)O)oc2ccc(S(=O)(=O)N(CCc3ccccc3)Cc3cccc4cccnc34)cc12 [Example 26, 3-METHYL-5-(N-(QUINOLIN-8-YLMETHYL)-N-PHENYLETHYLSULFAMOYL)BENZOFURAN-2-CARBOXYLIC ACID] |  |  | 1000 to 10000 | 10 to 50 |
| Cc1c(C(=O)O)oc2ccc(S(=O)(=O)N(CCc3ccccc3)CCc3ccccc3)cc12 [Example 28, 3-Methyl-5-(N,N-diphenylethylsulfamoyl)benzofuran-2-carboxylic acid] | 2100 | 3.1 |  |  |
| Cc1c(C(=O)O)oc2ccc(NC(=O)/C=C/c3cccc(I)c3)cc12 [Example 18, (E)-5-(3-(3-IODOPHENYL)ACRYLAMIDO)-3-METHYLBENZOFURAN-2-CARBOXYLIC ACID] | 510 | 1 |  |  |
